Data published in US20200093801A1, “NEW METHODS FOR THE TREATMENT OF MULTIPLE SCLEROSIS” (Novartis AG, priority 2017, published 2020).
“Also recorded” adds a separate entry of the source.

How the values were obtained:
[1] = Quantitative determination of BLZ945 in blood and brain (LC-MS-MS); type: in vivo; settings: mice, p.o., FIG. 11
Procedure: Sample preparation and analysis was based on a modified protein precipitation procedure followed by liquid chromatographic separation coupled with mass spectrometry for detection. Cerebella were homogenized in a gentleMACS™ Dissociator (Milteniy Biotec, #130-093-235) by adding 20% CH3OH to a final concentration of 0.20 g/mL. Blood-EDTA samples were directly used for further preparation. Calibration, quality control, and recovery control samples were prepared by spiking blank blood and blank brain homogenate with known quantities of BLZ945 (between 0.02 and 62.5 μg/mL). For analyte determination, Labetalol hydrochloride (Sigma-Aldrich, # L1011) was used as generic internal standard (IS). […]
LC-MS-MS analysis: For quantitative analysis, a 1.5 μl aliquot of each sample, including calibration, quality control, and recovery control samples were injected with a cooled Waters™ Acquity Urbinary sample manager and HPLC system. […] Quantification was based on the compound/IS ratio of the extracted ion chromatograms of the selected mass transitions 399 m/z→242 m/z for BLZ945 and 329 m/z→162 m/z for Labetalol (IS). The unknown sample concentration was calculated using external calibration curves. The Lower Limit Of Quantification (LLOQ) of the method was set to 20 ng/mL for blood, and 100 ng/mL for brain samples, and the recovery from the matrix was 95±2%. […]

[2] = system: Cuprizone-Induced Demyelination in Mice; assay: Cuprizone-induced demyelination in mice, brain histology / immunohistochemistry (169 mg/kg); type: in vivo, Mice (C57BL/6J); settings: 169 mg/kg p.o. qd, 2 weeks after 5 weeks 0.2% cuprizone
Description: Studies described below were approved by the Swiss Cantonal Veterinary Authority of Basel City, Switzerland, under the license number 2711. Mice (C57BL/6J) were commercially purchased from Charles River Laboratories, Germany or obtained from Novartis Pharma AG breeding colonies (8-9 weeks old, females). All the animals were allowed to adapt for 7 days prior the start of the experiment and housed in IVC racks (max. 4 mice/XJ Type cage). The animals were given access to food and water ad libitum. Animals were treated with cuprizone for 5 weeks. Cuprizone (Bis(cyclohexanone)oxaldihydrazone, Sigma-Aldrich) was mixed into rodent food pellets (0.2% w/w) by Provimi Kliba AG, Switzerland. Therapeutic treatment of animals after cuprizone was performed for 2 weeks on normal food with 169 mg/kg of BLZ945, qd, p.o. 10 ml/kg. BLZ945 was prepared in vehicle consisting of 0.5% methylcellulose in water and 0.1% Tween-80. Before killing 3 h after last BLZ945 dosing animals were perfused transcardially by phosphate-buffered saline (PBS), brains isolated and fixed in 4% paraformaldehyde (PFA) for 48 h at 4° C. After fixation brains were processed for paraffin embedding by dehydration through increasing ethanol series. Automated immunohistochemistry of paraffin sections was performed on 3 μm paraffin sections mounted on SuperFrost+ slides and automatically immunostained using the Discovery XT technology (Ventana/Roche Diagnostics). Briefly, sections were deparaffinized, rehydrated, subjected to antigen retrieval by heating with CC1 cell conditioning buffer, incubated for 1-3 hours at room temperature with primary antibody diluted in antibody diluent, incubated with the respective biotinylated secondary antibody diluted in antibody dilution, reacted with DABMab kit and counterstained with Hematoxylin II and Bluing Agent reagent (Ventana/Roche Diagnostics). Slides were washed with soap in hot tap water and rinsed under cold running tap water to remove the soap, then dehydrated and embedded with Pertex. Manual immunofluorescence staining of paraffin sections was performed on 3 μm paraffin sections. They were de-waxed and subjected to antigen retrieval (exception: GST-π) by microwaving for 15-20 minutes at 98° C. in 0.1 M citrate buffer pH 6.0 (quartett 400300692), the jar with slides were cooled to room temperature for 20-25 min and rinsed in 1×TBS (cell signaling 12498S) twice for 3 min. Endogenous peroxidase was quenched with Perox Block (Dako S2023) for 10 min, sections then washed with 1×TBS twice for 3 min and blocking with 10% normal goat serum (Dako X0907) in 1×TBS for 20 min performed. Sections were then incubated without rinsing with primary antibody for 60 min (MBP) or overnight (GST-pi, MOG) at room temperature. Sections were then washed in 1×TBS twice for 3 min and then incubated with secondary antibody for 30 min at room temperature. Sections were then washed with 1×TBS twice for 3 min and incubated with Vectastain ABC Elite Kit (Vector PK6100) for 30 min at room temperature, washed with 1×TBS twice for 3 min, incubated with DAB solution (Dako K3468) for 1-5 min. Sections were finally washed with distilled water twice for 2 min, counterstained with Hematoxylin (Dako S2020) for 3 min, again washed with running tap water for 5 min, dehydrated and embedded in Pertex. […]

[3] = compared to control (normal food)

Kp at 3 h ([1]; C57BL/6J, mouse, brain (cerebellum homogenate) / whole blood (EDTA), po, read-out: brain/blood ratio): 0.3 to 0.6
Blood and brain BLZ945 levels [1]: dose-dependent
SMILES: CNC(=O)c1cc(Oc2ccc3nc(N[C@@H]4CCCC[C@H]4O)sc3c2)ccn1 [BLZ945, 4-(2-((1R,2R)-2-hydroxycyclohexylamino)benzothiazol-6-yloxy)-N-methylpicolinamide]
Iba1+ microglia number compared to control, cortex [2, 3]: lower number of Iba1+ microglia
Iba1+ microglia number compared to control, striatum [2, 3]: lower number of Iba1+ microglia
GFAP-positive astrocytes (stained area), all brain areas ([2]; compared to vehicle): enhances astrocytes; also recorded: even further increases astrocyte numbers; also recorded: substantially higher in cortex and striatum than it is in the corpus callosum
Iba1-positive microglia numbers, all brain areas analyzed (cortex, striatum, corpus callosum) ([2]; compared to vehicle treated animals): reduces microglia numbers; also recorded: significantly reducing this increase compared to vehicle treated animals
GST-π positive mature oligodendrocytes (number of positive cells), cortex ([2]; immunohistochemistry): increases oligodendrocyte numbers; also recorded: did not reach control levels; also recorded: significantly increased after BLZ945 treatment compared to vehicle control
GST-π positive mature oligodendrocytes (number of positive cells), striatum ([2]; immunohistochemistry): increases oligodendrocyte numbers; also recorded: significantly increased after BLZ945 treatment compared to vehicle control; also recorded: did not reach control levels
Myelin basic protein (MBP) stained area, cortex ([2]; immunohistochemistry): enhances remyelination; also recorded: did not reach control levels; also recorded: significantly increased after BLZ945 treatment compared to vehicle control
Myelin basic protein (MBP) stained area, striatum ([2]; immunohistochemistry): enhances remyelination; also recorded: did not reach control levels; also recorded: significantly increased after BLZ945 treatment compared to vehicle control
GST-π positive oligodendrocytes, corpus callosum ([2]; vs cuprizone vehicle): not corpus callosum; also recorded: no difference
Luxol fast blue (LFB) optical density, corpus callosum ([2]; vs cuprizone vehicle): no difference
Myelin oligodendrocyte glycoprotein (MOG) optical density, corpus callosum ([2]; vs cuprizone vehicle): not corpus callosum; also recorded: no difference
